Data set [1] is described as follows: Cytotoxicity evaluation using viability assay (crystal violet colorimetric method). Format: cell-based, human. As to conditions: human, HepG2 cells, 48 hours; for viability at 48 h, 1.56 μg: HepG2, sample conc. 1.56 μg; for viability at 48 h, 3.125 μg: HepG2, sample conc. 3.125 μg; for viability at 48 h, 6.25 μg: HepG2, sample conc. 6.25 μg; for viability at 48 h, 12.5 μg: HepG2, sample conc. 12.5 μg; for viability at 48 h, 25 μg: HepG2, sample conc. 25 μg; for viability at 48 h, 50 μg: HepG2, sample conc. 50 μg. An excerpt:
(§1) HepG2 cells (human cell line of a well differentiated hepatocellular carcinoma isolated from a liver biopsy of a person) were obtained from the American Type Culture Collection (ATCC). The chemicals used were: Dimethyl sulfoxide (DMSO), crystal violet and trypan blue dye, purchased from Sigma, St. Louis, Mo., USA; DMEM, RPMI-1640, FBS, HEPES buffer solution, L-glutamine, gentamycin and 0.25% Trypsin-EDTA, purchased from BioWhittaker®, Lonza, Belgium; and Crystal violet stain (1%), composed of 0.5% (w/v) crystal violet and 50% methanol, made up to volume with ddH20 and filtered through a Whatmann No. I filter paper.
(§2) In the cytotoxicity assay, the cells were propagated in Dulbecco's modified Eagle's medium (DMEM) supplemented with 10% heat-inactivated fetal bovine serum, 1% L-glutamine, HEPES buffer and 50 μg/ml gentamycin. All cells were maintained at 37° C. in a humidified atmosphere with 5% CO2 and were subcultured two times a week.
(§3) Cell toxicity was monitored by determining the effect of the test samples on cell morphology and cell viability.
(§4) For cytotoxicity assay, the cells were seeded in a 96-well plate at a cell concentration of 1×10^4 cells per well in 100 μl of growth medium. Fresh medium containing different concentrations of the test sample was added after 24 hours following seeding. Serial two-fold dilutions of the tested chemical compound were added to confluent cell monolayers dispensed into 96-well, flat-bottomed microtiter plates (Falcon, N.J., USA) using a multichannel pipette. The microtiter plates were incubated at 37° C. in a humidified incubator with 5% CO2 for a period of 48 hours. Three wells were used for each concentration of the test sample. Control cells were incubated without test sample and with or without DMSO. The little percentage of DMSO present in the wells (maximal 0.1%) was found not to affect the experiment. After incubation of the cells for 24 hours at 37° C., various concentrations of sample (50, 25, 12.5, 6.25, 3.125 & 1.56 μg) were added, and the incubation was continued for 48 hours and viable cells yield was determined by a colorimetric method.
(§5) In brief, after the end of the incubation period, media were aspirated and the crystal violet solution (1%) was added to each well for at least 30 minutes. The stain was removed and the plates were rinsed using tap water until all excess stain was removed. Glacial acetic acid (30%) was then added to all wells and mixed thoroughly and then the absorbance of the plates was measured after being gently shaken on a Microplate reader (TECAN, Inc.), using a test wavelength of 490 nm. All results were corrected for background absorbance detected in wells without added stain. Treated samples were compared with the cell control in the absence of the tested compound. All experiments were carried out in triplicate.
(§6) The cell cytotoxic effect of tested compound was calculated according to the rapid colorimetric assay for cellular growth and survival: application to proliferation and cytotoxicity assay, published by T. Mosmann in the Journal of Immunology Methods, 1983, 65:55-63; and the antiviral activity of medicinal plants of Nilgriris, published by P. Vijayan et al. in the Indian Journal of Medical Research, 2004, 120: 24-29.

Data set [2] has as its system HepG2 (Hepatocellular carcinoma cells). The description is as above. Format: cell-based, human. As to conditions: Homo sapiens, 48 hours incubation, read-out: inhibition concentration value (IC50).
Text: as §1, §2, §3, §4, §5, §6

Assay in data set [3]: as above
The class given is cell-based. As to conditions: human, HepG2 cells; for viability at 48 h, 0.78 μg: HepG2, sample conc. 0.78 μg.

In brackets after ≈: the same amount, converted by molar mass.

Take `O=c1[nH]c(Nc2ccc([N+](=O)[O-])cc2)nc2sc3c(c12)CCCCC3` (hydrate or solvate) [Compound III, 2-((4-Nitrophenyl)amino)-6,7,8,9-tetrahydro-3H-cyclohepta[4,5]thieno[2,3-d]pyrimidin-4(5H)-one]: the melting point is 298 °C.

With `O=c1[nH]c(Nc2ccc([N+](=O)[O-])cc2)nc2sc3c(c12)CCCCC3` [Compound III, 2-((4-Nitrophenyl)amino)-6,7,8,9-tetrahydro-3H-cyclohepta[4,5]thieno[2,3-d]pyrimidin-4(5H)-one], in data set [1], the viability at 48 h, 1.56 μg was determined as 36.9%; the viability at 48 h, 3.125 μg was 23.7%; the viability at 48 h, 6.25 μg came to 18.5%; the viability at 48 h, 12.5 μg stood at 14.4%. In data set [1], this compound displayed a viability at 48 h, 25 μg of 10.2% and a viability at 48 h, 50 μg of 6.32%. Moreover, in data set [2], the IC50 came to 0.7 µg/mL (≈ 1.96 µM). This compound had a viability at 48 h, 0.39 μg in data set [3] (HepG2, sample conc. 0.39 μg) of 60.8%. This compound also displayed a viability at 48 h, 0.78 μg in data set [3] of 47.1%.

In data set [1], `COc1cccc2c1C(=O)c1c(O)c3c(c(O)c1C2=O)C[C@@](O)(C(=O)CO)C[C@@H]3O[C@H]1C[C@H](N)[C@H](O)[C@H](C)O1` [Doxorubicin, reference compound] returned a viability at 48 h, 1.56 μg of 48.2%; a viability at 48 h, 3.125 μg of 30.3%; a viability at 48 h, 6.25 μg of 21%; a viability at 48 h, 12.5 μg of 16.9%. In data set [1], the viability at 48 h, 25 μg turned out to be 14.3% and the viability at 48 h, 50 μg was found to be 10.9%. In data set [3], this compound gave a viability at 48 h, 0.78 μg of 57.4%.
